Measured values: patent US20120028358A1, “METHOD FOR INCREASING RETROVIRAL INFECTIVITY” (priority 2010, published 2012)

Legend:
glucocorticoid receptor = target: T1, glucocorticoid receptor (Homo sapiens, UniProt P04150); conditions: cited from earlier work
T1 sequence (P04150 1-777): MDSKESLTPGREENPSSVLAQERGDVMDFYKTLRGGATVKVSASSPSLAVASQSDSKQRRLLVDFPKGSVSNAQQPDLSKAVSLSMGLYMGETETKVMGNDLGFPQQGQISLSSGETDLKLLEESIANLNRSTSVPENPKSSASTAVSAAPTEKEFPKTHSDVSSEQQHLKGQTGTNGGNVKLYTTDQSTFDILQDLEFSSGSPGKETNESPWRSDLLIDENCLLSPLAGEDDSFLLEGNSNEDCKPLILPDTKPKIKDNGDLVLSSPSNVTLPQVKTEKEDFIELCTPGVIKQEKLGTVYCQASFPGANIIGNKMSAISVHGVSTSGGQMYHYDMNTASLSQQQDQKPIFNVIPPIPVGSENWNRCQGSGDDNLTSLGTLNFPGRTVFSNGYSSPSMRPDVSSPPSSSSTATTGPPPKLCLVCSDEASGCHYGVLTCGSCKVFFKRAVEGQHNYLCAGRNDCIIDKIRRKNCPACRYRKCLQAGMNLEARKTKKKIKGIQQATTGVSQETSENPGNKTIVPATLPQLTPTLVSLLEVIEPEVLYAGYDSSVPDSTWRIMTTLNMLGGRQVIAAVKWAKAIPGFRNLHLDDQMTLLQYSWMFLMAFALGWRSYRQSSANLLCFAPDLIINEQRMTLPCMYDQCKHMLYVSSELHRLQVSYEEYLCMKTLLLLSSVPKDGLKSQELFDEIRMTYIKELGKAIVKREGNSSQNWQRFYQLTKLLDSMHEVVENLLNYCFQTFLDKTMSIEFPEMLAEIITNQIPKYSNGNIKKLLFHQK

rat PMVEC = experiment: Gamma-retroviral infection efficiency of PMVEC (percent fluorescent cells by FACS); format: cell-based; conditions: for Retroviral infectivity versus control: increasing concentrations, Org 34517 0.1-30 μmol/L
Experimental: Cell cultures: Phoenix Retroviral Expression System ecotropic and amphotropic packaging cells were purchased from Orbigen, Inc. (San Diego, Calif.). […] Rat pulmonary microvascular endothelial cells (PMVEC), were obtained from our cell culture core at the University of South Alabama (King J, et al. Structural and functional characteristics of lung macro and microvascular endothelial phenotypes. Microvascular Res. 2004, March, 67(2). 139-151). Human glioblastoma cells (U87MG), and human mammary carcinoma cells (T47D) were obtained from ATCC. All cells were cultured in DMEM, 10% FBS, 2 mmol L-Glutamine and used for experiments at passages 4-9. All cells were grown in humidified incubators at 37° C. in 5% CO2. Cells were harvested by 0.05% trypsin/0.53 mM EDTA digestion, washed, re-suspended in cultured medium and analyzed directly by FACScan in the University of South Alabama Flow Cytometry Core. For cell cycle analysis cellular DNA was stained with […] of propridium iodide for 20 minutes as described elsewhere (48) and then analyzed by FACScan.
Vectors and delivery systems: pBMN-GFP (Orbigen, Inc., San Diego, Calif.), a retroviral vector that expresses GFP driven by the MMLV's promoter in Phoenix and other cells was used. In some experiments Murine Stem Cell Virus (MSCV) expressing mCherry and the hybrid retroviral vector Friend Murine Embryonic-stem cell Virus (FMEV) [for Friend Mink Cell Focus-forming (FMCF)/Murine Embryonic Stem cell Virus (MESV)](31) expressing DsRed2 were used in addition to MMLV. Two lentiviral vectors pLemiR (Open Biosystems, Huntsville, Ala.) and pLVX-DsRed-Monomer-C1 (Clontech Laboratories, Inc., Mountain View, Calif.) harboring turboRFP and DsRed as reporters were also used for comparison to gamma-retroviruses. Packaging cells were transfected with retroviral vectors using FuGENE 6 reagent following the manufacturer's instructions. For virus propagation, packaging cells were cultured in growth medium for 12-18 hours. Virus was collected with cultured medium, filtered, supplemented with hexadimethrine bromide (polybrene) to a final concentration of 4 μg/ml and applied directly to target cells.
Gamma-retroviral backbones containing genes encoding fluorescent proteins as reporters were propagated in Phoenix ecotropic packaging cells. Viral-conditioned supernatant was collected and applied to target cells (rat pulmonary microvascular endothelial cells, PMVEC).

progesterone receptor = target: T2, progesterone receptor (Homo sapiens, UniProt P06401); conditions: cited from earlier work
T2 sequence (P06401 1-933): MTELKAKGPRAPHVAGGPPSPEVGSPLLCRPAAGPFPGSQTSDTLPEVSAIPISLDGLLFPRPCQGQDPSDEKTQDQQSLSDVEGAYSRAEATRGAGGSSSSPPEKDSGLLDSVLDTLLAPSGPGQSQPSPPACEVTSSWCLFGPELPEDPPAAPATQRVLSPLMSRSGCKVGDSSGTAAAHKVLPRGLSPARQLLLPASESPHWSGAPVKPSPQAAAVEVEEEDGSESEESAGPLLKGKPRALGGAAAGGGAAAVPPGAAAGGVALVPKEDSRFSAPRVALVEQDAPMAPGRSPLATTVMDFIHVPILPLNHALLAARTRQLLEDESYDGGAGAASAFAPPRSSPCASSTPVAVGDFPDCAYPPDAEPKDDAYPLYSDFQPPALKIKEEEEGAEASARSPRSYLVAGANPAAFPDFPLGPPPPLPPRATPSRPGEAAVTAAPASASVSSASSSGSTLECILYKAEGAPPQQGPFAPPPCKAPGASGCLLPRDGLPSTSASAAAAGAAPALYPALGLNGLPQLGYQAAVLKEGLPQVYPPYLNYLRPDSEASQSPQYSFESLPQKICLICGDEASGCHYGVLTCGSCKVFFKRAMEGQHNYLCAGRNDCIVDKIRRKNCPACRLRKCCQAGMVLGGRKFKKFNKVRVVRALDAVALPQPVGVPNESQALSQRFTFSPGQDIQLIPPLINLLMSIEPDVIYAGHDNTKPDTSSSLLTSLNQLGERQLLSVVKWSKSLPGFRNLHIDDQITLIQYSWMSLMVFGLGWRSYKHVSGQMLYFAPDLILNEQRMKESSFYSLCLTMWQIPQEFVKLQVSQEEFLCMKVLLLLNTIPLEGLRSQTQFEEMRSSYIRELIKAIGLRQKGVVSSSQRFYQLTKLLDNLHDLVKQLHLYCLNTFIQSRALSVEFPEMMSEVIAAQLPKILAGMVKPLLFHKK

[1] = system: rat pulmonary microvascular endothelial cells (PMVEC); experiment: Percent GFP-positive (infected) target cells after conditioned medium from Phoenix cells; format: cell-based; conditions: conditioned medium from Phoenix cells grown with dexamethasone, plateau at 10 nmol
Phoenix cells and PMVEC = experiment: Cell growth and survival of packaging and target cells

| Compound | IC50 (glucocorticoid receptor) | Potency in increasing retroviral infectivity relative to mifepristone (rat PMVEC) | Retroviral infectivity versus control (rat PMVEC) | IC50 (progesterone receptor) | Percentage of GFP-positive (infected) PMVEC [1] | Cell growth (Phoenix cells and PMVEC; over 7 days, retrovirus producing or target cells (data not shown)) | Adverse effects on cell growth or survival (Phoenix cells and PMVEC; packaging or target cells) |
| --- | --- | --- | --- | --- | --- | --- | --- |
| CC#C[C@]1(O)CC[C@H]2[C@@H]3CCC4=CC(=O)CCC4=C3[C@@H](c3ccc4c(c3)OCO4)C[C@@]21C [Org 34517] | 17.9 nM | less potent than mifepristone | significantly increased | – | – | – | – |
| C=C1OC(CC)=NC12CCC1C3CCC4=CC(=O)CCC4=C3C(c3ccc(C(C)=O)cc3)CC12C (centres unmarked) [7453-102, 11b-[4-(acetyl)phenyl)-4′,5′-dihydro-2′-ethyl-5′-methylenespiro[estra-4,9-dien-17b,4′-oxazole]-3-one] | – | – | no effect | 0.34 nM | – | – | – |
| C[C@@H]1C[C@H]2[C@@H]3CCC4=CC(=O)C=C[C@]4(C)[C@@]3(F)[C@@H](O)C[C@]2(C)[C@@]1(O)C(=O)CO [dexamethasone, Dexamethasone] | – | – | – | – | 45% | no effect | did not cause any evident adverse effects |
